Results as given in patent US11464770B2, “Anticancer pharmaceutical composition” (NATIONAL CANCER CENTER, priority 2016, dated 2022).
pIC50: −log10 of the molar value. Like-named read-outs stand apart in the source and are kept apart here.

Tests used:
[1] = tested on: lung cancer cell lines (e.g. NCI-H23, NCI-H1229); test: Cell based assay, cell viability (CellTiter-Glo), lung cancer cell lines; conditions: Homo sapiens, 72 hours treatment, CellTiter-Glo
Protocol: (§1) Commercially available bladder cancer, prostate cancer, lung cancer, breast cancer, blood cancer, pancreatic cancer, colorectal cancer, brain cancer, neuroblastoma, melanoma, liver cancer, cervical carcinoma, ovarian cancer, renal cancer, and papilloma cell lines were each treated with trypsin-EDTA and cultured, followed by being seeded in each well of a 96 well plate. After 24 hours of treatment at constant temperature, the respective cells were treated with the candidate compound so that a final concentration became 0 to 2 μM. The treated cells were additionally cultured for 72 hours, and cell viability was measured by using an ATP detection method (CellTiter-Glo® Luminescent Cell Viability Assay, Promega).

liver cancer cell lines = test: Cell based assay, cell viability (CellTiter-Glo), liver cancer cell lines; conditions: Homo sapiens, SK-HEP1; SK-HEP-1 cell line
Protocol: as §1

[2] = A549 cells, read-out: IC50, lung cancer cell line A549
[3] = DMS 114 cells, read-out: IC50, lung cancer cell line DMS 114
[4] = NCI-H23 cells, read-out: IC50, lung cancer cell line NCI-H23
[5] = NCI-H460 cells, read-out: IC50, lung cancer cell line NCI-H460
[6] = NCI-H522 cells, read-out: IC50, lung cancer cell line NCI-H522
[7] = NCI-H1299 cells, read-out: IC50, lung cancer cell line NCI-H1299
[8] = NCI-H1437 cells, read-out: IC50, lung cancer cell line NCI-H1437

| SMILES | pIC50 [1, 2] | pIC50 [1, 3] | pIC50 [1, 4] | pIC50 [1, 5] | pIC50 [1, 6] | pIC50 [1, 7] | pIC50 [1, 8] | pIC50 (liver cancer cell lines) | pIC50 ([1]; MRC-5 cells, read-out: IC50) |
| --- | --- | --- | --- | --- | --- | --- | --- | --- | --- |
| CCS(=O)(=O)n1c([S+](C)[O-])c(C(C)=O)c(=O)c2c(Cl)ccc(Br)c21 (stereo not drawn) [Compound 39, 3-acetyl-8-bromo-5-chloro-1-(ethylsulfonyl)-2-(methylsulfinyl)quinolin-4(1H)-one] | < 5.70 | < 5.70 | < 5.70 | < 5.70 | < 5.70 | < 5.70 | < 5.00 | < 5.70 | < 5.70 |
| CSc1c(C(C)=O)c(=O)c2c(Cl)ccc(Br)c2n1S(=O)(=O)c1ccc(C(C)(C)C)cc1 [Compound 40, 3-acetyl-8-bromo-1-((4-(tert-butyl)phenyl)sulfonyl)-5-chloro-2-(methylthio)quinolin-4(1H)-one] | < 5.70 | < 5.70 | < 5.70 | < 5.70 | < 5.70 | < 5.70 | < 5.00 | < 5.70 | < 5.70 |
| CC(=O)c1c(S(C)(=O)=O)n(S(=O)(=O)c2ccc(C(C)(C)C)cc2)c2c(Br)ccc(Cl)c2c1=O [Compound 41, 3-acetyl-8-bromo-1-((4-(tert-butyl)phenyl)sulfonyl)-5-chloro-2-(methylsulfonyl)quinolin-4(1H)-one] | < 5.70 | < 5.70 | < 5.70 | < 5.70 | < 5.70 | < 5.70 | < 5.00 | < 5.70 | < 5.70 |
| CC(=O)c1c([S+](C)[O-])n(S(=O)(=O)c2ccc(C(C)(C)C)cc2)c2c(Br)ccc(Cl)c2c1=O (stereo not drawn) [Compound 42, 3-acetyl-8-bromo-1-((4-(tert-butyl)phenyl)sulfonyl)-5-chloro-2-(methylsulfinyl)quinolin-4(1H)-one] | < 5.70 | < 5.70 | 5.74 | < 5.70 | < 5.70 | < 5.70 | < 5.00 | < 5.70 | < 5.70 |
| CC(=O)c1c(SCc2cc(Cl)ccc2Cl)[nH]c2c(Br)ccc(Cl)c2c1=O [Compound 43, 3-acetyl-8-bromo-5-chloro-2-((2,5-dichlorobenzyl)thio)quinolin-4(1H)-one] | < 5.70 | < 5.70 | < 5.70 | < 5.70 | < 5.70 | < 5.70 | < 5.00 | < 5.70 | < 5.70 |
| CC(=O)c1c(SCc2cc(F)cc(F)c2)[nH]c2c(Br)ccc(Cl)c2c1=O [Compound 45, 3-acetyl-8-bromo-5-chloro-2-((3,5-difluorobenzyl)thio)quinolin-4(1H)-one] | < 5.70 | < 5.70 | < 5.70 | < 5.70 | < 5.70 | < 5.70 | < 5.00 | < 5.70 | < 5.70 |
| CC(=O)c1c(SCc2cccc(I)c2)[nH]c2c(Br)ccc(Cl)c2c1=O [Compound 47, 3-acetyl-8-bromo-5-chloro-2-((3-iodobenzyl)thio)quinolin-4(1H)-one] | < 5.70 | < 5.70 | < 5.70 | < 5.70 | < 5.70 | < 5.70 | < 5.00 | < 5.70 | < 5.70 |
| CC(=O)c1c([S+]([O-])Cc2cccc(I)c2)[nH]c2c(Br)ccc(Cl)c2c1=O (stereo not drawn) [Compound 48, 3-acetyl-8-bromo-5-chloro-2-((3-iodobenzyl)sulfinyl)quinolin-4(1H)-one] | < 5.70 | < 5.70 | 5.82 | < 5.70 | < 5.70 | < 5.70 | < 5.00 | < 5.70 | < 5.70 |
| CC(=O)c1c(SCc2cccc(F)c2)[nH]c2c(Br)ccc(Cl)c2c1=O [Compound 49, 3-acetyl-8-bromo-5-chloro-2-((3-fluorobenzyl)thio)quinolin-4(1H)-one] | < 5.70 | < 5.70 | < 5.70 | < 5.70 | < 5.70 | < 5.70 | < 5.00 | < 5.70 | < 5.70 |
| CC(=O)c1c(SCc2ccccc2)nc2c(Br)ccc(Cl)c2c1O [Compound 52, 1-(2-(benzylthio)-8-bromo-5-chloro-4-hydroxyquinolin-3-yl)ethan-1-one] | < 5.70 | < 5.70 | < 5.70 | < 5.70 | < 5.70 | < 5.70 | < 5.00 | < 5.70 | < 5.70 |
| CC(=O)c1c([S+]([O-])Cc2ccccc2)nc2c(Br)ccc(Cl)c2c1O (stereo not drawn) [Compound 53, 1-(2-(benzylsulfinyl)-8-bromo-5-chloro-4-hydroxyquinolin-3-yl)ethan-1-one] | < 5.70 | < 5.70 | < 5.70 | < 5.70 | < 5.70 | < 5.70 | < 5.00 | < 5.70 | < 5.70 |
| CC(=O)c1c(S(=O)(=O)Cc2ccccc2)nc2c(Br)ccc(Cl)c2c1O [Compound 54, 1-(2-(benzylsulfonyl)-8-bromo-5-chloro-4-hydroxyquinolin-3-yl)ethan-1-one] | < 5.70 | < 5.70 | < 5.70 | < 5.70 | < 5.70 | < 5.70 | < 5.00 | < 5.70 | < 5.70 |
| CC(=O)c1c([S+]([O-])Cc2ccccc2C#N)[nH]c2c(Br)ccc(Cl)c2c1=O (stereo not drawn) [Compound 58, 2-(((3-acetyl-8-bromo-5-chloro-4-oxo-1,4-dihydroquinolin-2-yl)sulfinyl)methyl)benzonitrile] | < 5.70 | < 5.70 | 6.10 | < 5.70 | 5.71 | 5.94 | < 5.00 | 6.11 | 6.12 |
| COCSc1[nH]c2c(Br)ccc(Cl)c2c(=O)c1C(C)=O [Compound 61, 3-acetyl-8-bromo-5-chloro-2-((methoxymethyl)thio)quinolin-4(1H)-one] | < 5.70 | < 5.70 | < 5.70 | < 5.70 | < 5.70 | < 5.70 | < 5.00 | < 5.70 | < 5.70 |
| CC(=O)c1c(S)[nH]c2c(Br)ccc(Cl)c2c1=O [Compound 62, 3-acetyl-8-bromo-5-chloro-2-mercaptoquinolin-4(1H)-one] | < 5.70 | < 5.70 | < 5.70 | < 5.70 | < 5.70 | < 5.70 | < 5.00 | < 5.70 | < 5.70 |
| CC(=O)c1c([S+]([O-])Cc2ccc(C(=O)c3ccccc3)cc2)[nH]c2c(Br)ccc(Cl)c2c1=O (stereo not drawn) [Compound 63, 3-acetyl-2-((4-benzoylbenzyl)sulfinyl)-8-bromo-5-chloroquinolin-4(1H)-one] | < 5.70 | < 5.70 | 5.77 | < 5.70 | < 5.70 | < 5.70 | < 5.00 | < 5.70 | < 5.70 |

Further lines, with some results ahead:

| pIC50 [1, 2] | pIC50 [1, 3] | pIC50 [1, 4] | pIC50 [1, 5] | pIC50 [1, 6] | pIC50 [1, 7] | pIC50 [1, 8] | pIC50 (liver cancer cell lines) | SMILES | pIC50 ([1]; MRC-5 cells, read-out: IC50) |
| --- | --- | --- | --- | --- | --- | --- | --- | --- | --- |
| < 5.70 | < 5.70 | < 5.70 | < 5.70 | < 5.70 | < 5.70 | < 5.00 | < 5.70 | CC(=O)c1c(SCc2cccc(C#N)c2)[nH]c2c(Br)ccc(Cl)c2c1=O [Compound 27, 3-(((3-acetyl-8-bromo-5-chloro-4-oxo-1,4-dihydroquinolin-2-yl)thio)methyl)benzonitrile] | < 5.70 |
| < 5.70 | < 5.70 | 6.12 | 5.80 | 5.73 | 5.95 | < 5.00 | 6.12 | CC(=O)c1c([S+]([O-])Cc2cccc(C#N)c2)[nH]c2c(Br)ccc(Cl)c2c1=O (stereo not drawn) [Compound 28, 3-(((3-acetyl-8-bromo-5-chloro-4-oxo-1,4-dihydroquinolin-2-yl)sulfinyl)methyl)benzonitrile] | 6.15 |
| < 5.70 | < 5.70 | < 5.70 | < 5.70 | < 5.70 | < 5.70 | < 5.00 | < 5.70 | CC(=O)c1c(SCc2ccc(F)c(Cl)c2)[nH]c2c(Br)ccc(Cl)c2c1=O [Compound 30, 3-acetyl-8-bromo-5-chloro-2-((3-chloro-4-fluorobenzyl)thio)quinolin-4(1H)-one] | < 5.70 |
| < 5.70 | < 5.70 | < 5.70 | < 5.70 | < 5.70 | < 5.70 | < 5.00 | < 5.70 | CC(=O)c1c(SCc2ccc([N+](=O)[O-])cc2)[nH]c2c(Br)ccc(Cl)c2c1=O [Compound 32, 3-acetyl-8-bromo-5-chloro-2-((4-nitrobenzyl)thio)quinolin-4(1H)-one] | < 5.70 |
| < 5.70 | < 5.70 | < 5.70 | < 5.70 | < 5.70 | < 5.70 | < 5.00 | < 5.70 | CSc1c(C(C)=O)c(=O)c2c(Cl)ccc(Br)c2n1S(C)(=O)=O [Compound 35, 3-acetyl-8-bromo-5-chloro-1-(methylsulfonyl)-2-(methylthio)quinolin-4(1H)-one] | < 5.70 |
| < 5.70 | < 5.70 | < 5.70 | < 5.70 | < 5.70 | < 5.70 | < 5.00 | < 5.70 | CC(=O)c1c([S+](C)[O-])n(S(=O)(=O)C(F)(F)F)c2c(Br)ccc(Cl)c2c1=O (stereo not drawn) [Compound 36, 3-acetyl-8-bromo-5-chloro-2-(methylsulfinyl)-1-((trifluoromethyl)sulfonyl)quinolin-4(1H)-one] | < 5.70 |
| < 5.70 | < 5.70 | < 5.70 | < 5.70 | < 5.70 | < 5.70 | < 5.00 | < 5.70 | CSc1c(C(C)=O)c(=O)c2c(Cl)ccc(Br)c2n1S(=O)(=O)c1ccc(Cl)cc1 [Compound 37, 3-acetyl-8-bromo-5-chloro-1-((4-chlorophenyl)sulfonyl)-2-(methylthio)quinolin-4(1H)-one] | < 5.70 |
| < 5.70 | < 5.70 | < 5.70 | < 5.70 | < 5.70 | < 5.70 | < 5.00 | < 5.70 | CSc1c(C(C)=O)c(=O)c2c(Cl)ccc(Br)c2n1S(=O)(=O)c1ccc([N+](=O)[O-])cc1 [Compound 38, 3-acetyl-8-bromo-5-chloro-2-(methylthio)-1-((4-nitrophenyl)sulfonyl)quinolin-4(1H)-one] | < 5.70 |
